Assay results taken from ChEMBL document CHEMBL5154818, “Development of oxoisoaporphine derivatives with topoisomerase I inhibition and reversal of multidrug resistance in breast cancer MCF-7/ADR cells” (Eur J Med Chem, 2022).
Activity calls are given as the source filed them. No cut-off for these calls is given here.

Legend:
[1] = test system: Calf thymus DNA; assay: Binding affinity to calf thymus DNA assessed as hypochromicity at 20 uM measured by UV-vis absorption spectroscopy; assay type: nucleic-acid assay; conditions: Bos taurus
[2] = biological target: T1, DNA topoisomerase 1 (Homo sapiens) (UniProt P11387); assay: Inhibition of human DNA topoisomerase 1 assessed as reduction in pBR322 DNA relaxation at 50 to 100 uM measured by gel electrophoresis method; conditions: dose 50-100 µM
T1 sequence (whole entry): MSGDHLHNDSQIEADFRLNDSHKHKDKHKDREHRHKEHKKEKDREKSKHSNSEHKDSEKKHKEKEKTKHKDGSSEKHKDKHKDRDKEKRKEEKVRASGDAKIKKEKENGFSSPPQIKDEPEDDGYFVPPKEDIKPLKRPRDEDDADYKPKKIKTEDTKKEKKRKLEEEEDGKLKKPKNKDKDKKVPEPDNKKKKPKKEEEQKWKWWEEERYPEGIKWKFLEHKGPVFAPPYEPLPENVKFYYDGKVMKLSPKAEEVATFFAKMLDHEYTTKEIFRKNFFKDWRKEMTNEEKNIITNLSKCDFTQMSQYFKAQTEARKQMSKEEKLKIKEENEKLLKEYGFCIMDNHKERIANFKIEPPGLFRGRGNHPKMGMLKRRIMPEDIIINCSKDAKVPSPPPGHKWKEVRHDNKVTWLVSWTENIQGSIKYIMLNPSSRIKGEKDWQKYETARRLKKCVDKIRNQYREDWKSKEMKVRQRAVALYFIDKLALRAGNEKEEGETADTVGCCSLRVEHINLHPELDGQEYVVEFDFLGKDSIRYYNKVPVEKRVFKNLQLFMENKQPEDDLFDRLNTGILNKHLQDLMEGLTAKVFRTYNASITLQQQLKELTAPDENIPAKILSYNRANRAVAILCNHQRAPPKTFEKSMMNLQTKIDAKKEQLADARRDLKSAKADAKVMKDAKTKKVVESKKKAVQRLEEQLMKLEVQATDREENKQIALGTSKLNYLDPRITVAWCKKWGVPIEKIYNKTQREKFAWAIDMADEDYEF

[3] = test system: NCI/ADR-RES; assay: Induction of apoptosis in human MCF7/ADR cells assessed as increase in Bax expression at 5 to 20 uM measured after 24 hrs by Western blotting analysis; assay type: functional, cell-based; conditions: dose 5-20 µM
[4] = test system: MCF7; assay: Antitumor activity against human MCF7 cells xenografted in Balb/c nude mouse assessed as tumor growth inhibition at 1 mg/kg, ip administered 3 times a week for 3 weeks; assay type: functional; conditions: MCF7, 504 h, read-out: TGI
[5] = test system: MCF7; assay: Antitumor activity against human MCF7 cells xenografted in Balb/c nude mouse assessed as tumor growth inhibition at 10 mg/kg, ip administered 3 times a week for 3 weeks; assay type: functional; conditions: MCF7, 504 h, read-out: TGI
[6] = Toxicity in BALB/c nude mouse xenografted with human MCF7 cells assessed as increase in survival rate at 10 mg/kg, ip administered 3 times a week for 3 weeks; assay type: organism-based; conditions: in vivo, 504 h

## CC1CCCCN1CCOc1ccc2c3c(nccc13)-c1ccccc1C2=O (stereo unspecified)
[1]
  Activity: 33.9%
[2]
  inhibition: Active
[3]
  Activity: Active
[4]
  inhibition in vivo at 1 mg/kg: 32.4%
[5]
  inhibition in vivo at 10 mg/kg: 7.2%
[6]
  Activity: Non-Toxic
